Read-outs that look alike come from different tables or passages of the source.
Columns and labels:
[1] = molecular target: Cys242 in human PIK3CA (157-299) (Homo sapiens (Human), UniProt P42336); test: Covalent modification assay using MALDI-TOF MS; format: biochemical; conditions: 4 h reaction time point; 1 μM protein target, 1:5 protein to compound ratio (compounds 853-1279)
Summary of the method: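 PIK3CA (157-299), 3.33 or 1 μM in 20 mM HEPES, 150 mM NaCl, 2 mM MgCl2, pH 7.3, was incubated with compound at room temperature in the dark for 15 min, 30 min, 2 h or 4 h. Linear MALDI-TOF read-out; % modification = adduct peak height over summed heights of all protein species.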

pAKT in BT474 cells = test: Cell-based pAKT HTRF assay in BT474 cells; conditions: BT474 cells, 4 hr incubation, Compounds 1000-1279, read-out: pAKT inhibition IC50 in BT474 cells
Summary of the method: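 Compound titration: 3 μM downward in 3-fold steps, nine points, 4 hr on cells. Detection: lysis, then d2 plus Eu Cryptate antibody mix, room-temperature incubation of 4–24 h, and time-resolved fluorescence read at 615 nm.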

Sequence of Cys242 in human PIK3CA (157-299) (P42336 157-299): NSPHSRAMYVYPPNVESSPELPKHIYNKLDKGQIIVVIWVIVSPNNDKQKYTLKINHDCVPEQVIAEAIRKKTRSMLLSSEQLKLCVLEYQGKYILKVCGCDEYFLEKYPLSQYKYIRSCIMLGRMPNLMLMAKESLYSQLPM

Compound | % of modification [1] | IC50 (pAKT in BT474 cells) | IC50 (pAKT in BT474 cells; Homo sapiens, BT-474)
C=CC(=O)N1CCn2nc(-c3nc(-c4ccc5c(c4)C4(CC4)CN(C)C5)c4ccsc4c3-c3c(F)cc(F)cc3OCCOC)cc2C1C (stereo not shown) [Compound 1193] | A (percent of modification of PIK3CA protein ≥75%) | < 100 nM | 
C=CC(=O)N1CCn2nc(-c3nc(-c4cccc(OCCN(C)C)c4)c4ccsc4c3-c3c(F)cc(F)cc3OCCO)cc2C1C (stereo not shown) [Compound 1194] | A (percent of modification of PIK3CA protein ≥75%) | < 100 nM | 
C=CC(=O)N1CCn2nc(-c3nc(-c4ccc5c(c4)NC(=O)CN(C)C5)c4ccsc4c3-c3c(F)cc(F)cc3OCCO)cc2C1C (stereo not shown) [Compound 1195] | A (percent of modification of PIK3CA protein ≥75%) | < 100 nM | 
C=CC(=O)N1CCn2nc(-c3nc(-c4cnc5c(c4)CN(C)CC5(F)F)c4ccsc4c3-c3c(F)cc(F)cc3OCCO)cc2C1C (stereo not shown) [Compound 1196] | A (percent of modification of PIK3CA protein ≥75%) | < 100 nM | 
C=CC(=O)N1CCn2nc(-c3nc(-c4ccc5c(c4)C4(CC4)CN(C)C5)c4ccsc4c3-c3c(F)cc(F)cc3OCCO)cc2C1C (stereo not shown) [Compound 1197] | A (percent of modification of PIK3CA protein ≥75%) | < 100 nM | 
C=CC(=O)N1CCn2nc(-c3nc(-c4ccc(OC5CN(C)C5)cc4)c4ccsc4c3-c3c(F)cc(F)cc3OCCO)cc2C1C (stereo not shown) [Compound 1198] | A (percent of modification of PIK3CA protein ≥75%) | < 100 nM | 
C=CC(=O)N1CCn2nc(-c3nc(-c4ccnc(OCCN(C)C)c4)c4ccsc4c3-c3c(F)cc(F)cc3OCCOC)cc2C1C (stereo not shown) [Compound 1199] | A (percent of modification of PIK3CA protein ≥75%) | < 100 nM | 
C=CC(=O)N1CCc2cc(-c3nc(-c4ccc5nn(C)cc5c4)c4ccsc4c3-c3c(F)cc(F)cc3OCCO)nn2CC1 [Compound 1200] | A (percent of modification of PIK3CA protein ≥75%) | < 100 nM | 
C=CC(=O)N1CCn2nc(-c3nc(-c4ccc(OCC5CN(C)C5)nc4)c4ccsc4c3-c3c(F)cc(F)cc3OCCOC)cc2C1C (stereo not shown) [Compound 1201] | A (percent of modification of PIK3CA protein ≥75%) | < 100 nM | 
C=CC(=O)N1CCc2cc(-c3nc(-c4ccc5c(c4)CCNC5=O)c4ccsc4c3-c3c(F)cc(F)cc3OCCO)nn2CC1 [Compound 1202] | A (percent of modification of PIK3CA protein ≥75%) | < 100 nM | 
C=CC(=O)N1CCn2nc(-c3nc(-c4cncc(OC5CN(C)C5)c4)c4ccsc4c3-c3c(F)cc(F)cc3OCCOC)cc2C1C (stereo not shown) [Compound 1203] | A (percent of modification of PIK3CA protein ≥75%) | < 100 nM | 
C=CC(=O)N1CCn2nc(-c3nc(-c4ccc(OC5CN(C)C5)nc4)c4ccsc4c3-c3c(F)cc(F)cc3OCCOC)cc2C1C (stereo not shown) [Compound 1205] | A (percent of modification of PIK3CA protein ≥75%) | < 100 nM | 
C=CC(=O)N1CCn2nc(-c3nc(-c4ccc(C(=O)N(C)CCN(C)C)cc4)c4ccsc4c3-c3c(F)cc(F)cc3OCCOC)cc2C1C (stereo not shown) [Compound 1206] | A (percent of modification of PIK3CA protein ≥75%) | < 100 nM | 
C=CC(=O)N1CCc2cc(-c3nc(-c4ccc5c(cnn5C)c4)c4ccsc4c3-c3c(F)cc(F)cc3OCCO)nn2CC1 [Compound 1207, (S)-1-(2-(7-(2,4-difluoro-6-(2-hydroxyethoxy)phenyl)-4-(1-methyl-1H-indazol-5-yl)thieno[3,2-c]pyridin-6-yl)-4,5,7,8-tetrahydro-6H-pyrazolo[1,5-d][1,4]diazepin-6-yl)prop-2-en-1-one] | A (percent of modification of PIK3CA protein ≥75%) |  | < 100 nM
C=CC(=O)N1CCc2cc(-c3nc(-c4ccc5cn(C)nc5c4)c4ccsc4c3-c3c(F)cc(F)cc3OCCO)nn2CC1 [Compound 1210] | A (percent of modification of PIK3CA protein ≥75%) | < 100 nM | 
C=CC(=O)N1CCn2nc(-c3nc(-c4ccc5c(c4)CCN(C)CC5)c4c(c3-c3c(F)cc(F)cc3OCCOC)CCC4)cc2[C@H]1C [Compound 1223] | A (percent of modification of PIK3CA protein ≥75%) | < 100 nM | 
C=CC(=O)N1CCn2nc(-c3nc(-c4ccc(C5CCCN5C)cc4)c4ccsc4c3-c3c(F)cc(F)cc3OCCOC)cc2C1C (stereo not shown) [Compound 1224] | A (percent of modification of PIK3CA protein ≥75%) | < 100 nM | 
COCCOc1cc(F)cc(F)c1-c1c(-c2cc3n(n2)CCN(C(=O)CCl)[C@@H]3C)nc(-c2ccc3c(cnn3C)c2)c2ccsc12 [Compound 1225] | A (percent of modification of PIK3CA protein ≥75%) | > 1000 nM | 
C=C(F)C(=O)N1CCn2nc(-c3nc(-c4ccc5c(cnn5C)c4)c4ccsc4c3-c3c(F)cc(F)cc3OCCOC)cc2[C@H]1C [Compound 1226] | D (percent of modification <25%) | 100 to 1000 nM | 

Compound | % of modification [1] | IC50 (pAKT in BT474 cells) | IC50 (pAKT in BT474 cells; Homo sapiens, BT-474)
CC#CC(=O)N1CCn2nc(-c3nc(-c4ccc5c(cnn5C)c4)c4ccsc4c3-c3c(F)cc(F)cc3OCCOC)cc2[C@H]1C [Compound 1227] | B (50%<percent of modification <75%) | 100 to 1000 nM | 
COCCOc1cc(F)cc(F)c1-c1c(-c2cc3n(n2)CCN(C(=O)C(F)Cl)[C@@H]3C)nc(-c2ccc3c(cnn3C)c2)c2ccsc12 (stereo partly shown) [Compound 1228] | D (percent of modification <25%) | > 1000 nM | 
C#CC(=O)N1CCn2nc(-c3nc(-c4ccc5c(cnn5C)c4)c4ccsc4c3-c3c(F)cc(F)cc3OCCOC)cc2[C@H]1C [Compound 1229] | A (percent of modification of PIK3CA protein ≥75%) | > 1000 nM | 
C=CC(=O)N1CCn2nc(-c3nc(N4Cc5cn(C)nc5C4)c4ccsc4c3-c3c(F)cc(F)cc3OCCOC)cc2C1C (stereo not shown) [Compound 1230] | A (percent of modification of PIK3CA protein ≥75%) | 100 to 1000 nM | 
COCCOc1cc(F)cc(F)c1-c1c(-c2cc3n(n2)CCN(C(=O)C=CCN(C)C)C3C)nc(-c2ccc3c(cnn3C)c2)c2ccsc12 (stereo not shown) [Compound 1232] | A (percent of modification of PIK3CA protein ≥75%) | < 100 nM | 
COCCOc1cc(F)cc(F)c1-c1c(-c2cc3n(n2)CCN(C#N)C3C)nc(-c2ccc3c(cnn3C)c2)c2ccsc12 (stereo not shown) [Compound 1233] | D (percent of modification <25%) | 100 to 1000 nM | 
C=CC(=O)N1CCn2nc(-c3nc(-c4ccc5c(cnn5C)c4)c4ccsc4c3-c3c(F)cc(F)cc3OCCOC(F)F)cc2C1C (stereo not shown) [Compound 1234] | A (percent of modification of PIK3CA protein ≥75%) | < 100 nM | 
C=CC(=O)N1CCn2nc(-c3nc(-c4ccc(C5CCCN5C)cc4)c4ccsc4c3-c3c(F)cc(F)cc3OCCOC)cc2C1C (stereo not shown) [Compound 1237] | A (percent of modification of PIK3CA protein ≥75%) | < 100 nM | 
CC=C(C#N)C(=O)N1CCn2nc(-c3nc(-c4ccc5c(cnn5C)c4)c4ccsc4c3-c3c(F)cc(F)cc3OCCOC)cc2C1C (stereo not shown) [Compound 1239] | C (25%≤percent of modification <50%) | > 1000 nM | 
C=CC(=O)N1CCn2nc(-c3nc(-c4ccc5c(cnn5C)c4)c4ccsc4c3-c3c(F)cc(F)cc3OC3CC(F)(F)C3)cc2C1C (stereo not shown) [Compound 1240] | A (percent of modification of PIK3CA protein ≥75%) | < 100 nM | 
C=CC(=O)N1CCn2nc(-c3nc(-c4cnc5c(c4)CN(CCOC)CC5(F)F)c4ccsc4c3-c3c(F)cc(F)cc3OCCOC)cc2C1C (stereo not shown) [Compound 1242] | A (percent of modification of PIK3CA protein ≥75%) | < 100 nM | 
C=CC(=O)N1CCn2nc(-c3nc(-c4cnc5c(c4)CN(C)CC5)c4c(c3-c3c(F)cc(F)cc3OCCOC)CCC4)cc2C1C (stereo not shown) [Compound 1243] | A (percent of modification of PIK3CA protein ≥75%) | < 100 nM | 
C=CC(=O)N1CCn2nc(-c3nc(-c4ccc5c(c4)CN(C)CC5)c4c(c3-c3c(F)cc(F)cc3OCCOC)CCC4)cc2C1C (stereo not shown) [Compound 1244] | A (percent of modification of PIK3CA protein ≥75%) | < 100 nM | 
C=CC(=O)N1CCn2nc(-c3nc(-c4cncc(CCN(C)C)c4)c4ccsc4c3-c3c(F)cc(F)cc3OCCOC)cc2C1C (stereo not shown) [Compound 1245] | A (percent of modification of PIK3CA protein ≥75%) | < 100 nM | 
C=CC(=O)N1Cc2cc(-c3nc(C45CC(CNC(C)=O)(C4)C5)c4ccsc4c3-c3c(F)cc(F)cc3OCCOC)nn2CC1C (stereo not shown) [Compound 1246] | B (50%<percent of modification <75%) | 100 to 1000 nM | 
C=CC(=O)N1CCn2nc(-c3nc(-c4ccc5c(c4)CN(CC(F)F)CC5)c4ccsc4c3-c3c(F)cc(F)cc3OCCOC)cc2C1C (stereo not shown) [Compound 1248] | A (percent of modification of PIK3CA protein ≥75%) | 100 to 1000 nM | 
C=CC(=O)N1CCn2nc(-c3nc(-c4ccc5c(c4)CN(CC(F)F)CC5)c4ccsc4c3-c3c(F)cc(F)cc3OCCO)cc2C1C (stereo not shown) [Compound 1249] | A (percent of modification of PIK3CA protein ≥75%) | < 100 nM | 
C=CC(=O)N1CCn2nc(-c3nc(-c4ccc5c(c4)CN(CC(F)(F)F)CC5)c4ccsc4c3-c3c(F)cc(F)cc3OCCO)cc2C1C (stereo not shown) [Compound 1250] | A (percent of modification of PIK3CA protein ≥75%) | < 100 nM | 
C=CC(=O)N1CCn2nc(-c3nc(-c4ccc5c(c4)CN(CC(F)(F)F)CC5)c4ccsc4c3-c3c(F)cc(F)cc3OCCOC)cc2C1C (stereo not shown) [Compound 1252] | A (percent of modification of PIK3CA protein ≥75%) | < 100 nM | 
